Reference: US5756505A, “N-acylpiperazine derivative, antibacterial drug and anti-ulcer drug” (Shiseido Co., Ltd., priority 1995, dated 1998)
Read-outs that look alike come from different tables or passages of the source.

What was measured:
stress ulcer formation = assay: WIS: Restraint and Water Immersion Stress-Induced Ulcer Inhibition Test; assay type: in vivo, rat (male Crj:SD or Slc:SD); details: rat; for WIS: ulcer formation inhibitory rate: 100 mg/kg oral, 7 hours stress; for anti-ulcer effect (in words): in vivo
Protocol: WIS: Restraint and Water Immersion Stress-Induced Ulcer Inhibition Test
The degree of inhibition of the stress ulcer formation is tested.
Male Crj:SDor Slc:SD rats (6 to 7-week-old) were fasted overnight, but allowed free access to water. Each group has 5 to 8 of these rats. The sample compound was dissolved or suspended in an aqueous solution of 0.3% sodium carboxymethylcellulose or 0.05% Tween 80 and then was orally administered (100 mg/10 ml/kg). To a control group, the vehicle was administered. 10 minuts later, the rats were placed in a stress cage and immersed to the level of xipfoid process in a water bath (21° C.) for 7 hours. At the end of the stress, the rats were sacrificed by inhalation of ether or carbon dioxide. Then, the stomach of each was removed, inflated by injecting 10 ml of 5% formalin neutral buffer solution, and immersed in 1% formalin neutral buffer solution for 30 minutes or more to be fixed. The stomach was incised along the greater curvature and then the length of each erosion in the glandular portion was determined under dissecting microscope. The sum of the length of erosions per stomach was defined as ulcer index (UI).
The effect obtained when 100 mg/kg of the sample compound had been administered was expressed as ulcer formation inhibitory rate (%) as follows:
ulcer formation inhibitory rate (%)=[1-(UI in sample group/UI in control group)]×100

[1] = tested on: isolated gastric fundic gland; assay: CAP: Acid Secretion Inhibition Test In Vitro ([14C]-aminopyrine uptake); assay type: cell-based, rabbit (male Japanese White); details: for inhibition at 10 µM: Oryctolagus cuniculus, read-out: CAP: acid secretion inhibitory rate
Protocol: CAP: Acid Secretion Inhibition Test In Vitro
The acid secretion inhibitory activity in a cell level is studied. It can also be used for studying the mechanism of the effect. […]
ii-a) Preparation of isolated gastric fundus gland suspension
First, an isolated gastric fundic gland sample was prepared. Namely, a male Japanese White rabbit (2.5 to 3 kg) was anesthetized to death with Nembutal™ and then the abdomen was incised. Immediately thereafter, the stomach was removed and, after its pyloric and cardiac antrum were severed, incised along its greater curvature into two sheets. The gastric contents adhering to the mucosal surface was washed out with ice-cooled PBS (-) and then carefully washed therein. The gastric wall was spread on a cork board with its mucosal surface facing up and the feed and mucus thereon were completely removed with sterile gauze. The mucosa was separated therefrom by a spatula and then collected in ice-cooled PBS (-). After being washed twice with PBS (-), the mucosa was minced into 2-3mm^3 pieces by scissors. These pieces were further washed twice with a nutrient solution. The nutrient solution comprises 132.4 mM of NaCl, 5.4 mM of KCl, 5 mM of Na2 HPO4 ·12H2 O, 1 mM of NaH2 PO4 ·2H2 O, 1.2 mM of MgSO4, 1 mM of CaCl2, 25 mM of HEPES, 2mg/ml of glucose, and 1 mg/ml of BSA. Into 70 ml of the nutrient solution containing 1 mg/ml of collagenase, minced mucosal pieces were dispersed and intensely stirred in a conical flask with a stirrer at 37° C. for 40 to 60 minutes. During this period, 100% O2 was sprayed on the nutrient solution surface and the pH was appropriately measured such that it was immediately adjusted to pH 7.4, when the value was therebelow, with a base. The nutrient solution was added to the reaction solution so as to attain the total amount of about 200 ml. After being filtered through a mesh, the suspension was divisionally introduced into 50 ml centrifuge tubes and left for 15 minutes such that gastric fundic gland was deposited. The supernatant was repeatedly removed by an aspirator, dispersed in the nutrient solution, and then left such that the gastric fundic gland was washed three times. At this time, without using a pipette, the suspension was alternately introduced into two centrifuge tubes so as to effect dispersion. The number of cells was counted under microscope and adjusted to 1.6×10^6 cells/ml. […]
ii-b) [^14 C]-aminopyrine uptake test
Then, [^14 C]-aminopyrine uptake test was performed. After an Eppendorf tube was weighed, 10 μl (final concentration: 10^-5 M) of histamine dissolved in the above-mentioned nutrient solution, 10 μl (final concentration: 10^-5 M) of the test compound dissolved in DMSO, and 10 μl (final concentration: 0.05 μCi/ml) of [^14 C]-aminopyrine diluted with the nutrient solution were introduced therein and then 970 μl of the isolated gastric fundic gland suspension prepared above were added thereto. Subsequently, this mixture was shaken at 37° C. for 40 minutes at 125 cycles/minute. After being centrifuged for 30 minutes 200 μl of its supernatant was collected into a mini-vial, while the rest was removed by an aspirator. The gland pellet was completely dried as the tube with its lid being opened was kept for one night in a drying oven at 80° C. and then the lid was closed and the weight was determined at room temperature. Then 100 μl of 1N KOH were added thereto and the tube with its lid being closed was treated at 60° C. for 1 to 2 hours so as to dissolve the pellet. Then, the contents thereof were transferred to a mini-vial. Into the mini-vial containing the supernatant or gland pellet, 4 ml of Atomlite™ were added and then the radioactivity was measured by a liquid scintillation counter. Here, after the radioactivity of the gland pellet was corrected by using a sample in which 20 mM of NaSCN were added so as to cancel the hydrogen ion concentration gradient, the integration ratio of aminopyrine specifically trapped by the gland pellet was calculated. […]

[2] = final concentration 10^-5 M, histamine 10^-5 M, rabbit gastric fundic gland

Row | SMILES | WIS: ulcer formation inhibitory rate (stress ulcer formation) [%] | CAP: acid secretion inhibitory rate [1, 2] [%] | anti-ulcer effect (in words) (stress ulcer formation) | inhibition at 10 µM [1, 2] [%] | inhibition at 10 µM [1] [%]
1 | CC(C)Cc1cc(C(=O)N2CCN(CC(C)C)CC2)ccc1OCc1ccccc1F.Cl [Example 19, 1-[4-(2-fluorobenzyloxy)-3-isobutylbenzoyl]-4-isobutylpiperazine hydrochloride] | 64 | 95 | – | – | –
2 | CC(C)Cc1cc(CN2CCN(CC(C)C)CC2)ccc1OCc1ccc(F)cc1.Cl.Cl [Example 20, 1-[4-(4-fluorobenzyloxy)-3-isobutylbenzyl]-4-isobutylpiperazine dihydrochloride] | 82 | – | effects were observed | 100 | –
3 | C=C(C)Cc1cc(C(=O)N2CCN(CC(C)C)CC2)ccc1OCc1ccc(F)cc1.Cl [Example 4, 1-[4-(4-fluorobenzyloxy)-3-methallylbenzoyl]-4-isobutylpiperazine hydrochloride] | 65 | – | – | 94 | –
4 | CC(C)Cc1cc(C(=O)N2CCN(CC(C)C)CC2)ccc1OCc1ccc(F)cc1F.Cl [Example 24, 1-[4-(2,4-difluorobenzyloxy)-3-isobutylbenzoyl]-4-isobutylpiperazine hydrochloride] | 72 | – | – | 99 | –
5 | CC(C)Cc1cc(C(=O)N2CCN(CC(C)C)CC2)ccc1OCc1ccc(F)cc1F [Example 27, 1-[4-(2,4-difluorobenzyloxy)-3-isobutylbenzoyl]-4-isobutylpiperazine] | 60 | 99 | – | – | –
6 | CC(C)Cc1cc(C(=O)N2CCN(CC(C)C)CC2)ccc1OCc1ccccc1 [Example 16, 1-(4-benzyloxy-3-isobutylbenzoyl)-4-isobutylpiperazine] | 72 | – | – | 98 | –
7 | CC(C)Cc1cc(C(=O)N2CCN(CC(C)C)CC2)ccc1OCc1ccc(F)c(F)c1 [Example 26, 1-[4-(3,4-difluorobenzyloxy)-3-isobutylbenzoyl]-4-isobutylpiperazine] | 63 | 99 | – | – | –
8 | CC(C)Cc1cc(C(=O)N2CCN(C(=O)C(C)C)CC2)ccc1OCc1ccc(F)cc1 [Example 6, 1-[4-(4-fluorobenzyloxy)-3-isobutylbenzoyl]-4-isobutyrylpiperazine] | 56 | – | sufficient effects | 57 | –
9 | CC(C)Cc1cc(C(=O)N2CCN(CC(C)C)CC2)ccc1OCc1ccc(Cl)cc1 [Example 17, 1-[4-(4-chlorobenzyloxy)-3-isobutylbenzoyl]-4-isobutylpiperazine] | 66 | – | – | 99 | –
10 | CC(C)Cc1cc(C(=O)N2CCN(CC(C)C)CC2)ccc1OCc1ccc(F)cc1.O=C(O)C(=O)O [Example 25, 1-[4-(4-fluorobenzyloxy)-3-isobutylbenzoyl]-4-isobutylpiperazine oxalate] | 70 | 95 | – | – | –
11 | CC(C)CN1CCN(C(=O)c2ccc(OCc3ccccc3)cc2)CC1 [Example 3, 1-(4-benzyloxybenzoyl)-4-isobutylpiperazine] | 69 | – | – | 85 | –
12 | CC(C)Cc1cc(C(=O)N2CCN(CC(C)C)CC2)ccc1OCc1ccc([N+](=O)[O-])cc1.Cl [Example 13, 1-isobutyl-4-[3-isobutyl-4-(4-nitrobenzyloxy)benzoyl]piperazine hydrochloride] | 77 | – | – | – | –
13 | COc1ccc(COc2ccc(C(=O)N3CCN(CC(C)C)CC3)cc2CC(C)C)cc1 [Example 14, 1-isobutyl-4-[3-isobutyl-4-(4-methoxybenzyloxy)benzoyl]piperazine] | 76 | – | – | 100 | –
14 | CC(C)Cc1cc(C(=O)N2CCN(CC(C)C)CC2)ccc1OCc1ccccc1F [Example 18, 1-[4-(2-fluorobenzyloxy)-3-isobutylbenzoyl]-4-isobutylpiperazine] | 64 | – | – | 100 | –
15 | CC(C)Cc1cc(C(=O)N2CCN(CC(C)C)CC2)ccc1OCc1ccc(F)cc1 [Example 21, 1-[4-(4-fluorobenzyloxy)-3-isobutylbenzoyl]-4-isobutylpiperazine] | 84 | – | improved | 100 | –
16 | CC(C)Cc1cc(CC(=O)N2CCN(CC(C)C)CC2)ccc1OCc1ccccc1 [Example 15, 1-(4-benzyloxy-3-isobutylphenylacetyl)-4-isobutylpiperazine] | 71 | – | sufficient effects were observed | – | 99
17 | CC(C)Cc1cc(C(=O)N2CCN(CC(C)C)CC2)ccc1OCc1ccc(F)c(F)c1.Cl [Example 23, 1-[4-(3,4-difluorobenzyloxy)-3-isobutylbenzoyl]-4-isobutylpiperazine hydrochloride] | 83 | – | – | 99 | –
18 | CC(C)CN1CCN(C(=O)c2ccc(OCc3ccc(F)cc3)c([N+](=O)[O-])c2)CC1.Cl [Example 8, 1-[4-(4-fluorobenzyloxy)-3-nitrobenzoyl]-4-isobutylpiperazine hydrochloride] | 35 | – | – | 100 | –
19 | CC(C)Cc1cc(C(=O)N2CCN(CCO)CC2)ccc1OCc1ccc(F)cc1 [Example 9, 1-[4-(4-fluorobenzyloxy)-3-isobutylbenzoyl]-4-(2-hydroxyethyl)piperazine] | 88 | – | sufficient effects | 100 | –
20 | CC(C)CN1CCN(C(=O)c2ccc(OCc3ccc(F)cc3)cc2)CC1.Cl [Example 2, 1-[4-(4-fluorobenzyloxy)benzoyl]-4-isobutylpiperazine hydrochloride] | 79 | – | – | 99 | –
21 | CC(C)Cc1cc(C(=O)N2CCN(CC(C)C)CC2)ccc1OCc1ccc(F)cc1.Cl [Example 22, 1-[4-(4-fluorobenzyloxy)-3-isobutylbenzoyl]-4-isobutylpiperazine hydrochloride] | 85 | 98 | improved | – | –
22 | Cc1cccc(COc2ccc(C(=O)N3CCN(CC(C)C)CC3)cc2CC(C)C)c1F.Cl [Example 12, 1-[4-(2-fluoro-3-methylbenzyloxy)-3-isobutylbenzoyl]-4-isobutylpiperazine hydrochloride] | 83 | – | – | 100 | –
23 | CC(C)CN1CCN(C(=O)c2ccc(OCc3ccc(F)cc3)cc2)CC1 [Example 5, 1-[4-(4-fluorobenzyloxy)benzoyl]-4-isobutylpiperazine] | 59 | 96 | – | – | –
